Where a SMILES comes first, the peptide text is derived from it. [ ]: non-standard residue; d: D form. The star is where a group is joined. NH(4-amidinobenzyl) = N=C(N)c1ccc(CN*)cc1
Tests used:
[1] = Autosampler (extract) stability; assay type: physicochemical; settings: 24 h in autosampler
Experimental: (§1) Blood samples for calibration and QC purposes were generated through the addition of 25 µL of the pertinent spike solution to 20 µL of blank blood and the subsequent addition of 25 µL of IS solution. Calibration samples were produced at 10, 30, 100, 300, 1000, 3000, and 10,000 ng/mL, and QC samples were produced at concentrations of 10, 30, 3750, and 7500 ng/mL. For study sample processing, 20 µL of each sample was added to 25 µL of IS solution, and 25 µL of ACN/H2O 1/1 + 0.1% FA was added for volume compensation to ensure that sample preparation matches that of study blood samples. For stability reasons, each sample was immediately depleted from proteins by adding 150 µL ACN including 0.1% FA. Samples were processed individually and kept frozen until processing. Subsequently, samples were centrifuged at 13,200× g for 5 min. From the extracts, 10 µL was transferred to 400 µL of ACN/H2O 1/19 + 0.1% FA in wells of a 96-well collection plate (Waters, Milford, MA, USA).
The instrumental setup comprised an Acquity UPLC® Classic System coupled to a Xevo TQ-S triple-stage quadrupole mass spectrometer, which was equipped with a Z-spray heated electrospray ionization (ESI) source (Waters, Milford, MA, USA). […] This yielded an optimal cone voltage of 30 V and collision energy of 10 V. The monitored mass transitions were m/z 343.3 → 436.9 for Ac-[D-Leu]LLLRVK-amba and m/z 345.6 → 440.4 for the IS.
The applicable recommendations for bioanalytical method validation of the FDA and EMA were applied to the validation of the assay. Accuracy was calculated as the percentage of the ratio of the mean of the determined concentrations and the nominal concentration. The acceptance limit is 100 ± 15%, with the exception of the LLOQ where it is 100 ± 20% Q. The assay precision was calculated as the coefficient of variation of the determined sample concentrations. […] Recovery of the whole blood extraction process was calculated from peak areas of QC samples divided by the peak areas obtained from blank blood spiked with the respective amount after processing. […]

[2] = Stability in human Li-heparin plasma; assay type: in vitro ADME; settings: pooled human Li-heparin plasma, over at least 2 h; 1000 ng/mL, room temperature; UPLC-MS/MS
Experimental: (§2) To investigate peptide stability, minimally diluted plasma or blood samples were generated through the addition of 10 µL of a spiking solution (50,000 ng/mL) to 490 µL of the pertinent biological matrix, resulting in a sample concentration of 1000 ng/mL. Samples (withdrawal of duplicates of 20 µL) were measured immediately after preparation and again after 1 and 2 h. Stability was evaluated via the comparison of peak area ratios of analyte and IS.
(§3) Because an isotopically labeled analog of Ac-[D-Leu]LLLRVK-amba was used as IS, potential variations in (negligible) matrix effects can be efficiently balanced by the IS due to its identical physicochemical characteristics. As a consequence, whole blood from other species is appropriate for calibration and QC preparation. Therefore, whole blood from human donors was used for these purposes, which also helps to reduce animal sacrifice.

[3] = mice; cited from earlier work
Experimental: The pharmacokinetics of Ac-[D-Leu]LLLRVK-amba was already determined after intravenous bolus injection. With a half-life of only 9 min, this route of administration only produced a short period of potentially effective concentrations. […] Therefore, we aimed at flattening the pharmacokinetic profile with alternate routes of administr ...

[4] = Stability in human whole blood; assay type: in vitro ADME; settings: human whole blood (K-EDTA), over at least 2 h; 1000 ng/mL, room temperature; UPLC-MS/MS
Experimental: as §2, §3

[5] = Freeze-and-thaw stability in whole blood QC samples; assay type: in vitro ADME, human; settings: for freeze-and-thaw stability, Accuracy [%]: one cycle
Experimental: as §1
The applicable recommendations for bioanalytical method validation of the FDA and EMA were applied to the validation of the assay. Accuracy was calculated as the percentage of the ratio of the mean of the determined concentrations and the nominal concentration. The acceptance limit is 100 ± 15%, with the exception of the LLOQ where it is 100 ± 20% Q. The assay precision was calculated as the coefficient of variation of the determined sample concentrations. It needs to be ≤15% in general and ≤20% at the LLOQ. Each validation run included blank and IS controls, seven calibration samples in duplicate determination, and four QC samples (LLOQ and low, mid, and high QC concentrations) in six-fold determination. Recovery of the whole blood extraction process was calculated from peak areas of QC samples divided by the peak areas obtained from blank blood spiked with the respective amount after processing. Assessment of matrix effects was performed by the ratio of peak areas of blank blood samples spiked after processing with the peak areas of UPLC solvent containing an identical amount of analyte. Stability of the analyte was investigated in freeze-and-thaw cycles separated by at least 24 h and at room temperature for testing bench-top stability.
as §3

- autosampler (extract) stability, Accuracy [%] ([1]; QC A): 98.3%
- autosampler (extract) stability, Accuracy [%] ([1]; QC B): 99.7%
- autosampler (extract) stability, Accuracy [%] ([1]; QC C): 97.5%
- degradation in human Li-heparin plasma [2]: no detectable degradation
- degradation in human whole blood [4]: no detectable degradation
- freeze-and-thaw stability, accuracy ([5]; whole blood QC samples, one freeze-and-thaw cycle, range over QC levels, corresponding precision ≤14.0%, UPLC-MS/MS): 91.5 to 98.3%
- deviation after further freeze-and-thaw cycles ([5]; whole blood, more than one freeze-and-thaw cycle, cycles separated by at least 24 h): > 15%
- freeze-and-thaw stability, Accuracy [%] ([5]; whole blood, QC A, UPLC-MS/MS): 91.5%
- freeze-and-thaw stability, Accuracy [%] ([5]; whole blood, QC B, UPLC-MS/MS): 91.6%
- freeze-and-thaw stability, Accuracy [%] ([5]; whole blood, QC C, UPLC-MS/MS): 98.3%
Compound: CC(=O)N[C@H](CC(C)C)C(=O)N[C@@H](CC(C)C)C(=O)N[C@@H](CC(C)C)C(=O)N[C@@H](CC(C)C)C(=O)N[C@@H](CCCNC(=N)N)C(=O)N[C@H](C(=O)N[C@@H](CCCCN)C(=O)NCc1ccc(C(=N)N)cc1)C(C)C [Ac-[D-Leu]LLLRVK-amba] (Ac-[dL]LLLRVK-{NH(4-amidinobenzyl)})
- half-life after intravenous bolus injection (previous study) [3]: 9 min
